These results are taken from patent US20250375526A1, “IRAK DEGRADERS AND USES THEREOF” (Kymera Therapeutics, Inc., priority 2020, published 2025).

This experiment deals with T1, IRAK4 (Homo sapiens, UniProt Q9NWZ3).
T1 construct: endogenous in cells; host or cells: OCI-Ly10
T1 sequence (Q9NWZ3 1-460): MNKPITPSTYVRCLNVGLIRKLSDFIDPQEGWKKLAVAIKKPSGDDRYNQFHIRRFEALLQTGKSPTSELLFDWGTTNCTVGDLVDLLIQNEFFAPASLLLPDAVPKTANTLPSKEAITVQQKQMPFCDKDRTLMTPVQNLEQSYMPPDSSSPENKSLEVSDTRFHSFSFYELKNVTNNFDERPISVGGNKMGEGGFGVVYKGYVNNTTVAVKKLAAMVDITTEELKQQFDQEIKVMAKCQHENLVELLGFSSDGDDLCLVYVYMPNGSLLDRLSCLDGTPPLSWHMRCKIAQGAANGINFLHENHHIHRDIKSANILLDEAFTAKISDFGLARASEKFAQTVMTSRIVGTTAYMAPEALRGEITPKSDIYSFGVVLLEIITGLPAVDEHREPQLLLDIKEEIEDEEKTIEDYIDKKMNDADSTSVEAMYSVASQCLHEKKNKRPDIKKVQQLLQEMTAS
Kind of experiment: OCI-LY10 IRAK MSD assay DC50 (IRAK4 degradation). The format is cell-based. Particulars: OCI-Ly10 cells, incubated for 4 hr, concentration of compound required to degrade 50% of protein. On the procedure: A MSD assay is run to determine the concentration of compound required to degrade 50% of protein (DC50).
• Compounds were reconstituted to 10 mM in stock solutions. The stock solutions were diluted to 5 mM and 45 μL of each dilution was transferred to a 384 pp-plate. A 3 fold, 8-point serial dilution was performed by transferring 15 μL of compound into 30 μL DMSO using Janus. • 20 nL of each compound were added into each well of a 96-well plate (Corning3799). • OCI-Ly10 cells were seeded into the 96-well plate at 3.0*10e^5 cells/100 μL/well. • The cell plate was shaken at 720 rpm for 5 min and incubated for 4 hr. • 100 μL of cells were transferred into the 96-PCR plate and spun down at high speed for 5 mins. • The supernatant was discarded and 100 μL of RIPA lysis buffer with proteinase inhibitors was added per well. The plate was then sealed and shaken at 600 rpm and 4° C. for about 20 min. • The plate was then spun down at high speed (about 3200 g) for 30 min and then frozen in a −80° C. fridge. • A bare MSD plate (L15XA-3) was coated with 2 μg/mL of capture antibody (mouse Anti-IRAK4 antibody [2H9], ab119942) in PBS to 40 μL/well and incubated overnight at 4° C.
• The MSD coated plate was washed 3× (150 μL/well) with 1×TBST (CST #9997S). • The MSD plate was then blocked with 150 μL of blocking buffer [3% Blocker A (MSD, R93BA-4) in TBST]/well and shaken for 1 hr at RT and 600 rpm. • The MSD plate was washed 3× (150 μL/well) with 1×TBST. The sample RIPA lysates were then added to the MSD plate (50 μL/well) and shaken for 1 hr at RT and 600 rpm. • The MSD plate was washed 3× (150 μL/well) with 1×TBST and the primary detection antibody (Rabbit Anti-IRAK4 antibody [Y279], ab32511) was added to a final concentration of 1 μg/ml with 25 μL/well. The plate was then shaken for 1 hr at RT and 600 rpm. • The MSD plate was washed 3× (150 μL/well) with 1×TBST and the secondary detection antibody, SULFO-TAG anti-species antibody (Anti Rabbit Antibody (R32AB-5) MSD, R32AB-1) was added to a volume of 25 μL/well at a final concentration of 1 μg/ml. The plate was then shaken for 1 hr at RT and 600 rpm. • The MSD plate was then washed 3× (150 μL/well) with 1×TBST. • 1×MSD reading buffer was then added (150 μL/well) and the plate […].
(MSD, R92TC-2) • The MSD instrument was then read.
The remaining activity was calculated following the formula below:
• The DC50 was calculated by fitting the Curve using Xlfit (v5.3.1.3), equation 201: […]
The letter codes for IRAK4 DC50 indicate the concentration of compound required to degrade 50% of protein: A (<0.01 μM), B (0.01-0.1 μM), C (>0.1-0.2 μM), D (>0.2 μM).
Regarding `COc1cc2nn([C@H]3CC[C@H](CN4CCC(c5ccn6c(N7CCC(=O)NC7=O)cnc6c5)CC4)CC3)cc2cc1NC(=O)c1cccc(C(F)(F)F)n1` [I-36, N-[2-[4-[[4-[3-(2,4-dioxohexahydropyrimidin-1-yl)imidazo[1,2-a]pyridin-7-yl]-1-piperidyl]methyl]cyclohexyl]-6-methoxy-indazol-5-yl]-6-(trifluoromethyl)pyridine-2-carboxamide], the half-maximal degradation concentration (DC50) (usually the midpoint of the concentration-degradation curve) was below 10 nM.
Regarding `C[C@@H]1CN(C[C@H]2CC[C@H](n3cc(NC(=O)c4cnn5ccc(N6C[C@H]7C[C@@H]6CO7)nc45)c(C(F)F)n3)CC2)CC[C@H]1OCC#Cc1ccn2c(N3CCC(=O)NC3=O)cnc2c1` [I-64], the DC50 is below 10 nM.
In the case of `COc1cc2nn([C@H]3CC[C@H](CN(C)C4CCN(c5cccn6c(N7CCC(=O)NC7=O)cnc56)CC4)CC3)cc2cc1NC(=O)c1cc(F)cc(C(F)(F)F)c1` [I-43], the half-maximal degradation concentration (DC50) lay within 10 to 100 nM.
`O=C1CCN(c2cnc3cc(C4CCN(C[C@H]5C[C@H](n6cc7cc(NC(=O)c8cccc(C(F)(F)F)n8)ccc7n6)C5)CC4)ccn23)C(=O)N1` [I-85] came in with a DC50 above 200 nM.
Consider `COc1cc2nn([C@H]3CC[C@H](CN4C[C@@H]5C[C@H]4CN5c4ccn5c(N6CCC(=O)NC6=O)cnc5c4)CC3)cc2cc1NC(=O)c1cccc(C(F)(F)F)n1` [I-52], for which the 50% degradation concentration (DC50) was 10 to 100 nM.
Compound `CN(C[C@H]1CC[C@H](n2cc3cc(NC(=O)c4cccc(C(F)(F)F)n4)ccc3n2)CC1)C1CCN(c2cccn3c(N4CCC(=O)NC4=O)cnc23)CC1` [I-27] displayed a DC50 above 200 nM.
As to `COc1cc2nn([C@H]3CC[C@H](CN4CCC(c5cccn6c(N7CCC(=O)NC7=O)cnc56)CC4)CC3)cc2cc1NC(=O)c1cncc(C#N)c1` [I-83], the 50% degradation concentration (DC50) lay within 100 to 200 nM.
Compound `O=C1CCN(c2cnc3cc(C#CCO[C@H]4CCN(C[C@H]5CC[C@H](n6cc(NC(=O)c7cnn8ccc(N9C[C@H]%10C[C@@H]9CO%10)nc78)c(C(F)F)n6)CC5)C[C@H]4F)ccn23)C(=O)N1` [I-71] came in with a DC50 below 10 nM.
In turn, `COc1cc2nn([C@H]3CC[C@H](CN4CCCN(c5cccn6c(N7CCC(=O)NC7=O)cnc56)CC4)CC3)cc2cc1NC(=O)c1cccc(C(F)(F)F)n1` [I-47] returned a DC50 of 10 to 100 nM.
The value for `C[C@H]1CN(C[C@H]2C[C@H](n3cc(NC(=O)c4cnn5ccc(N6C[C@H]7C[C@@H]6CO7)nc45)c(C(F)F)n3)C2)CC[C@@H]1OCC#Cc1ccn2c(N3CCC(=O)NC3=O)cnc2c1` [I-59] was below 10 nM; that for `COc1cc2nn([C@H]3CC[C@H](CN4CCC(c5cccn6c(N7CCC(=O)NC7=O)cnc56)CC4)CC3)cc2cc1NC(=O)c1cc(F)cc(C(F)(F)F)c1` [I-82] was 10 to 100 nM.
The value for `COc1cc2nn([C@H]3CC[C@H](CN4C5CCC4CN(c4ccn6c(N7CCC(=O)NC7=O)cnc6c4)C5)CC3)cc2cc1NC(=O)c1cccc(C(F)(F)F)n1` [I-45] was 10 to 100 nM; that for `O=C1CCN(c2cncc3cc(C4CCN(C[C@H]5CC[C@H](n6cc7cc(NC(=O)c8cccc(C(F)(F)F)n8)ncc7n6)CC5)CC4)ccc23)C(=O)N1` [I-18] was below 10 nM; that for `COc1cc2nc([C@H]3CC[C@H](CN4CCC(c5ccn6c(N7CCC(=O)NC7=O)cnc6c5)CC4)CC3)sc2cc1NC(=O)c1cccc(C(F)(F)F)n1` [I-78] was 10 to 100 nM.
Under `O=C1CCN(c2cnc3c(C4CCN(C[C@H]5CC[C@H](n6cc7cc(NC(=O)c8cccc(C(F)(F)F)n8)ncc7n6)CC5)CC4)cccn23)C(=O)N1` [I-29] stands 10 to 100 nM; under `COc1cc2nn([C@H]3CC[C@H](CN4CCC(c5ccn6c(N7CCC(=O)NC7=O)cnc6c5)CC4)CC3)cc2cc1NC(=O)c1cc(F)cc(C(F)(F)F)c1` [I-81], 10 to 100 nM.
Regarding `COc1cc2nn([C@H]3CC[C@H](CN(C)C4CCN(c5cccn6c(N7CCC(=O)NC7=O)cnc56)CC4)CC3)cc2cc1NC(=O)c1cncc(Cl)c1` [I-88], the half-maximal degradation concentration (DC50) is above 200 nM.
As for `COc1cc2nn([C@H]3CC[C@H](CN4C5CC4CN(c4cccn6c(N7CCC(=O)NC7=O)cnc46)C5)CC3)cc2cc1NC(=O)c1cccc(C(F)(F)F)n1` [I-57], the half-maximal degradation concentration (DC50) fell in the range of 10 to 100 nM.
The value for `COc1cc2nn([C@H]3CC[C@H](CN4C[C@@H]5C[C@H]4CN5c4cccn5c(N6CCC(=O)NC6=O)cnc45)CC3)cc2cc1NC(=O)c1cccc(C(F)(F)F)n1` [I-54] was 10 to 100 nM; that for `CN(C[C@H]1CC[C@H](n2cc3cc(NC(=O)c4cccc(C(F)(F)F)n4)ncc3n2)CC1)C1CCN(c2cccn3c(N4CCC(=O)NC4=O)cnc23)CC1` [I-30] was 100 to 200 nM.
For the compound `COc1cc2nn([C@H]3CC[C@H](CN4C5CCC4CN(c4cccn6c(N7CCC(=O)NC7=O)cnc46)C5)CC3)cc2cc1NC(=O)c1cccc(C(F)(F)F)n1` [I-53], the half-maximal degradation concentration (DC50) is below 10 nM.
For `COc1cc2nn([C@H]3CC[C@H](CN4C[C@H]5C[C@@H]4CN5c4cccn5c(N6CCC(=O)NC6=O)cnc45)CC3)cc2cc1NC(=O)c1cccc(C(F)(F)F)n1` [I-55], the DC50 is 10 to 100 nM.
For the compound `CC(C)Nc1cc(-n2ccc3cc(C#N)cnc32)ncc1C(=O)N[C@H]1CC[C@H](CN2CCC(c3cccn4c(N5CCC(=O)NC5=O)cnc34)CC2)CC1` [I-76], the DC50 lay in the range of 10 to 100 nM.
The value for `CC(C)Nc1cc(-n2ccc3cc(C#N)cnc32)ncc1C(=O)N[C@H]1CC[C@H](CN2CCC(c3ccn4c(N5CCC(=O)NC5=O)cnc4c3)CC2)CC1` [I-77] was 10 to 100 nM; that for `COc1cc2nn([C@H]3CC[C@H](CN4C[C@H]5C[C@@H]4CN5c4ccn5c(N6CCC(=O)NC6=O)cnc5c4)CC3)cc2cc1NC(=O)c1cccc(C(F)(F)F)n1` [I-56] was 10 to 100 nM; that for `COc1cc2nn([C@H]3C[C@H](CN4CCC(c5cccc6c(N7CCC(=O)NC7=O)cncc56)CC4)C3)cc2cc1NC(=O)c1cccc(C(F)(F)F)n1` [I-40] was 10 to 100 nM.
Under `COc1cc2nc([C@H]3CC[C@H](CN4CCN(c5ccn6c(N7CCC(=O)NC7=O)cnc6c5OC)CC4)CC3)sc2cc1NC(=O)c1cccc(C(F)(F)F)n1` [I-48] stands 10 to 100 nM; under `Cc1cc2nn([C@H]3CC[C@H](CN4CCN(c5cccn6c(N7CCC(=O)NC7=O)cnc56)CC4)CC3)cc2cc1NC(=O)c1cccc(C(F)(F)F)n1` [I-49], 10 to 100 nM; under `COc1cc2nc([C@H]3CC[C@H](CN(C)C4CCN(c5cccn6c(N7CCC(=O)NC7=O)cnc56)CC4)CC3)sc2cc1NC(=O)c1cccc(C(F)(F)F)n1` [I-44], 10 to 100 nM.
`N#Cc1cc2nn([C@H]3CC[C@H](CN4CCC(c5cccn6c(N7CCC(=O)NC7=O)cnc56)CC4)CC3)cc2cc1NC(=O)c1cccc(C(F)(F)F)n1` [I-67] showed a half-maximal degradation concentration (DC50) below 10 nM.
For `COc1cc2nn([C@H]3CC[C@H](CN4CCN(c5cccn6c(N7CCC(=O)NC7=O)cnc56)CC4)CC3)cc2cc1NC(=O)c1cccc(C(F)(F)F)n1` [I-69], the DC50 was below 10 nM.
In turn, `C[C@H]1CN(C[C@H]2CC[C@H](n3cc(NC(=O)c4cnn5ccc(N6C[C@H]7C[C@@H]6CO7)nc45)c(C(F)F)n3)CC2)CC[C@@H]1OCC#Cc1ccn2c(N3CCC(=O)NC3=O)cnc2c1` [I-63] yielded a DC50 below 10 nM.
Under `O=C1CCN(c2cnc3cc(C#CCN4CCN(C[C@H]5CC[C@H](n6cc(NC(=O)c7cnn8ccc(N9C[C@H]%10C[C@@H]9CO%10)nc78)c(C(F)F)n6)CC5)CC4)ccn23)C(=O)N1` [I-75] stands below 10 nM.
Under `CN(C[C@H]1CC[C@H](n2cc3cc(NC(=O)c4cccc(C(F)(F)F)n4)ccc3n2)CC1)C1CCN(c2ccn3c(N4CCC(=O)NC4=O)cnc3c2)CC1` [I-35] stands below 10 nM.
